One data set has as its system human plasma. The data set is described as follows: Anticoagulant effect on human plasma in vitro (APTT determination). It counts as biochemical. To be noted: for aPTT EC1.5×: concentration giving APTT of 1.5× blank control; for aPTT EC2×: concentration giving APTT of 2× blank control. How it is done: Example 51: Determination of the Anticoagulant Effect of the Compounds of the Present Invention on Human Plasma In Vitro
Plasma: Human blood was collected in a vacuum blood collection tube containing 3.2% sodium citrate (volume ratio 1:9), centrifuged at 3000 rpm for 10 min at room temperature, and the plasma was collected, divided into EP tubes, and stored at −80° C.
Reagents: APTT assay kit (Activated partial thromboplastin time assay kit, mindray), calcium chloride solution.
Instrument: coagulation meter (mindray, C2000-A)
The frozen human plasma in aliquots was thawed at room temperature and mixed well. 10 mM test compound dissolved in 100% DMSO was diluted with 100% DMSO to 1500, 750, 375, 187.5, 93.75, 46.88, 23.44, 11.72 μM. 98 μL of human plasma was added to a 1.5 mL EP tube, then 2 μL of compounds of different concentrations were added, and 2 μL of 100% DMSO was added for the blank group. They were incubated under a water bath at 37° C. for 10 min, and the samples were placed in the corresponding position of the coagulation analyzer to conduct APTT determination of the compounds.
Curve fitting was performed with GraphPad Prism software, and EC1.5× and EC2× values were calculated respectively, i.e., the concentrations of the compounds corresponding to the APTT of 1.5× and 2× blank control group.

Another data set concerns the target Human Factor XIa (Homo sapiens, UniProt P03951). As to the kind of experiment: Inhibition of human coagulation factor XIa by absorptiometry (substrate S-2366). It counts as biochemical. The conditions noted are these: 37° C., 20 min incubation, absorbance 405 nm; read-out: hFXIa IC50. The protocol:
Example 50: Detection of the Biological Activity of the Compounds of the Present Invention on the Inhibition of Human Coagulation Factor XIa by Absorptiometry
Buffer: 145 mM NaCl, 5 mM KCl, 1 mg/mL PEG 8000, 30 mM HEPES, pH 7.4
10 mM test compound dissolved in 100% DMSO was diluted with 100% DMSO to […]; 98 μL of FXIa enzyme solution (77.7 ng/mL) was added to each well of a 96-well plate, and 98 μL of buffer was added to the blank wells. 2 μL of compounds of different concentrations were added, and the blank and control wells were added with DMSO instead. They were mixed with a shaker, and incubated at 37° C. for 20 minutes.
Finally, 100 μL of 800 μM substrate was added to each well, and its absorbance was measured at 405 nm.

Another data set can be described thus: Rat pharmacokinetics. To be noted: for AUC / Cmax / Tmax / clearance / half-life / Vd: male, SD, plasma; for Vd: read-out: Vss. It counts as in vivo, SD rats. Further details: AUC: concentration or dose not given beside the values. The source says:
Example 53: Investigation of the Pharmacokinetic Characteristics of the Compounds of the Present Invention
SD rats: male, 180-250 g, purchased from Guangdong Medical Laboratory Animal Center. Cynomolgus monkey: male, 4-6 kg, purchased from Guangzhou Chunsheng Biological Research Institute Co., Ltd. Beagle dog: male, 8-12 kg, developed in Kanglong Chemical (Ningbo) New Drug Technology Co., Ltd.
Reagents: DMSO (dimethyl sulfoxide), PEG-400 (polyethylene glycol 400), normal brine, heparin, acetonitrile, formic acid, and propranolol (internal standard) are commercially available.
Instrumentation: Thermo Fisher Scientific LC-MS (U300 UPLC, TSQ […] ULTRA triple quadrupole mass spectrometer).
The compound was weighed and dissolved in DMSO-PEG-400-physiological brine (5:60:35, v/v/v) system. After the rats/monkeys were administered intravenously or by gavage, 200 μL of venous blood was collected at 5 min (not collected when administered by gavage), 15 min, 30 min, 1 h, 2 h, 4 h, 6 h, 8 h, and 24 h in heparinized EP tubes, centrifuged at 12000 rpm for 2 min, and the plasma was frozen at −80° C. for testing. A certain amount of the test substance was precisely weighed and dissolved in DMSO to 1 mg/mL, which was used as a stock solution. An appropriate amount of compound stock solution was accurately pipetted and diluted with acetonitrile to prepare a standard series of solutions. 20 μL of each of the above standard series solutions were accurately pipetted, added with 180 μL of blank plasma, vortexed and mixed to prepare plasma samples equivalent to plasma concentrations of 1, 3, 10, 30, 100, 300, 1000, 3000 and 5000 ng/mL. Two-sample analysis was performed for each concentration to establish a standard curve. 20 μL of plasma was taken out, added with 200 μL of internal standard propranolol (5 ng/mL) in acetonitrile, vortexed and mixed. It was centrifuged at 4000 rpm for 5 min, and the supernatant was collected for LC-MS analysis. LC-MS detection conditions were as follows:
Chromatographic column: Thermo Scientific […] GOLD C-18 UPLC column, 100*2.1 mm, 1.9 μm.
Mobile phase: water (0.1% formic acid)-acetonitrile for gradient elution according to the table below.
After blood drug concentrations being detected by LC-MS, WinNonlin 6.1 software was used to calculate pharmacokinetic parameters by non-compartmental model method.

Each structure is given as a SMILES string.

Chain of Human Factor XIa (P03951 388-625 limits assumed): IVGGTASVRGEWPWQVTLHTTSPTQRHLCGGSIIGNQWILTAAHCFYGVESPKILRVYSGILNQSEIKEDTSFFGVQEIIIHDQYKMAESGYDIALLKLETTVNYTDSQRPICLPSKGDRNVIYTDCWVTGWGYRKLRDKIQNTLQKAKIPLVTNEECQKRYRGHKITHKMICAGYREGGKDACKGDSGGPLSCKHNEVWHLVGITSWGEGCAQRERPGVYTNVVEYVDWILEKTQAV
Chain of Human Factor XIa (P03951 19-387 partner limits assumed): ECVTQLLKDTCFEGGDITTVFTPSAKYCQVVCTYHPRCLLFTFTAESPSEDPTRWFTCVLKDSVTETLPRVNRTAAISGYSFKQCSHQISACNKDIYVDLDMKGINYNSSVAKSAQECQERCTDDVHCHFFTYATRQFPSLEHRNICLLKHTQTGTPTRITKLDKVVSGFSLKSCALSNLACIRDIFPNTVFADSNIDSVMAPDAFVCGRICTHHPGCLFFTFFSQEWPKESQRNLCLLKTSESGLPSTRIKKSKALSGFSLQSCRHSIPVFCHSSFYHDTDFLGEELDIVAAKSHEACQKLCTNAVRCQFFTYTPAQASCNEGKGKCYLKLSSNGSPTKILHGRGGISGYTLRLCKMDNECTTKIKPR

On to `COc1nn(C(Cc2ccc(C)cc2)C(=O)Nc2ccc(C(=O)O)cc2)c(=O)cc1-c1cc(Cl)ccc1C(C)=O` (stereo not shown) [Example 7, 4-(2-(4-(2-acetyl-5-chlorophenyl)-3-methoxy-6-oxopyridazine-1(6H)-yl)-3-(p-tolyl)propanamido)benzoic acid], for which, in the data set on human plasma, the “aPTT EC1.5×” value came out at 2.073 µM and the “aPTT EC2×” value was found to be 12.58 µM. Further, the IC50 (usually the concentration at which inhibition is half-maximal) on Human Factor XIa amounted to 24.2 nM.

`COc1cc(NC(=O)[C@H](Cc2ccccc2)n2nc(OC)c(-c3cc(Cl)ccc3C(C)=O)cc2=O)ccc1C(=O)O` [Example 28, (S)-4-(2-(4-(2-acetyl-5-chlorophenyl)-3-methoxy-6-oxopyridazin-1(6H)-yl)-3-phenylpropan amido)-2-methoxybenzoic acid]: on Human Factor XIa, the IC50 stood at 218 nM.

For the compound `COc1nn([C@@H](Cc2ccccc2)C(=O)Nc2ccc(C(=O)O)c(Cl)c2)c(=O)cc1-c1cc(Cl)ccc1C(C)=O` [Example 27, (S)-4-(2-(4-(2-acetyl-5-chlorophenyl)-3-methoxy-6-oxopyridazin-1(6H)-yl)-3-phenylpropanamido)-2-chlorobenzoic acid], the IC50 at Human Factor XIa was found to be 79.5 nM.

Take `CC(=O)c1ccc(Cl)cc1-c1cc(=O)n([C@@H](Cc2ccccc2)C(=O)Nc2ccc(C(=O)O)cc2)nc1OCC(F)(F)F` [Example 23, (S)-4-(2-(4-(2-acetyl-5-chlorophenyl)-6-oxo-3-(2,2,2-trifluoroethoxy)pyridazine-1(6H)-yl)-3-phenylpropanamido)benzoic acid]: in the data set with human plasma, the “aPTT EC1.5×” value turned out to be 4.236 µM and the “aPTT EC2×” value is over 15 µM. In addition, the IC50 at Human Factor XIa is 22.5 nM.

As for `COc1nn(C(Cc2ccc(N3CCN(C(C)C)CC3=O)cc2)C(=O)Nc2ccc(C(=O)O)cc2)c(=O)cc1-c1cc(Cl)ccc1C(C)=O` (stereo not shown) [Example 4, 4-(2-(4-(2-acetyl-5-chlorophenyl)-3-methoxy-6-oxopyridazin-1(6H)-yl)-3-(4-(4-isopropyl-2-oxopiperazin-1-yl)phenyl)propanamido)benzoic acid], in the data set on human plasma, the “aPTT EC1.5×” value was determined as 2.171 µM and the “aPTT EC2×” value was 11.938 µM. In addition, the 50% inhibitory concentration (IC50) on Human Factor XIa is 32.6 nM.

Turning to `COc1nn(C(Cc2ccc(NC(=O)C3CC3)cc2)C(=O)Nc2ccc(C(=O)O)cc2)c(=O)cc1-c1cc(Cl)ccc1C(C)=O` (stereo not shown) [Example 33, 4-(2-(4-(2-acetyl-5-chlorophenyl)-3-methoxy-6-oxopyridazin-1(6H)-yl)-3-(4-(cyclopropaneformamido)phenyl)propanamido)benzoic acid], in the data set on human plasma, the “aPTT EC1.5×” value came out at 1.527 µM and the “aPTT EC2×” value was 7.691 µM. Moreover, the IC50 at Human Factor XIa came to 19.9 nM.

Regarding `COc1nn([C@@H](Cc2ccccc2)C(=O)Nc2ccc(C(=O)O)c(F)c2)c(=O)cc1-c1cc(Cl)ccc1C(C)=O` [Example 14, (S)-4-(2-(4-(2-acetyl-5-chlorophenyl)-3-methoxy-6-oxopyridazin-1(6H)-yl)-3-phenylpropanamido)-2-fluorobenzoic acid], the 50% inhibitory concentration (IC50) at Human Factor XIa worked out at 59.3 nM.

On to `CC(=O)c1ccc(Cl)cc1-c1cc(=O)n([C@@H](Cc2ccccc2)C(=O)Nc2ccc(C(=O)O)cc2)nc1OC(C)C` [Example 22, (S)-4-(2-(4-(2-acetyl-5-chlorophenyl)-3-isopropoxy-6-oxopyridazin-1(6H)-yl)-3-phenylpropanamido)benzoic acid], for which, in the data set on human plasma, the “aPTT EC1.5×” value amounted to 1.346 µM and the “aPTT EC2×” value was 9.382 µM. Further, on Human Factor XIa, the IC50 amounted to 16.2 nM.

As for `CCOCC1CCN(c2ccc(CC(C(=O)Nc3ccc(C(=O)O)cc3)n3nc(OC)c(-c4cc(Cl)ccc4C(C)=O)cc3=O)cc2)C(=O)C1` (stereo not shown) [Example 5], in the data set with human plasma, the “aPTT EC1.5×” value is 1.18 µM and the “aPTT EC2×” value was 4.414 µM. Also, the half-maximal inhibitory concentration (IC50) on Human Factor XIa came to 8.89 nM.

In the case of `COc1nn(C(Cc2ccc(Br)cc2)C(=O)Nc2ccc(C(=O)O)cc2)c(=O)cc1-c1cc(Cl)ccc1C(C)=O` (stereo not shown) [Example 3, 4-(2-(4-(2-acetyl-5-chlorophenyl)-3-methoxy-6-oxopyridazin-1(6H)-yl)-3-(4-bromophenyl)propanamido)benzoic acid], the half-inhibitory concentration (IC50) on Human Factor XIa stood at 51.2 nM.

Take `COc1nn([C@@H](Cc2ccccc2)C(=O)Nc2ccc(C(=O)O)c(O)c2)c(=O)cc1-c1cc(Cl)ccc1C(C)=O` [Example 29, (S)-4-(2-(4-(2-acetyl-5-chlorophenyl)-3-methoxy-6-oxopyridazin-1(6H)-yl)-3-phenylpropan amido)-2-hydroxybenzoic acid]: on Human Factor XIa, the 50% inhibitory concentration (IC50) stood at 63.8 nM.

With `O=C(O)c1ccc(NC(=O)[C@H](Cc2ccccc2)n2cnc(-c3cc(Cl)ccc3-n3cc(Cl)nn3)cc2=O)cc1` [Compound A, (S)-4-(2-(4-(5-chloro-2-(4-chloro-1H-1,2,3-triazol-1-yl)phenyl)-6-oxopyrimidin-1(6H)-yl)-3-phenylpropanamido)benzoic acid, reference compound], the F in “Rat pharmacokinetics” (ig) is 8.2%. Also, in the data set “Rat pharmacokinetics” (iv), the area under the curve (AUC) (usually concentration integrated over time) was 1410 ng·h/mL; the concentration peaked (Cmax) at 4600 ng/mL; the Tmax – broadly, the time from dosing to the highest level – stood at 4.98 min; the clearance – broadly, a measure of how efficiently the substance is removed, as volume per time – stood at 11.9 mL/min/kg. In “Rat pharmacokinetics” (iv), the half-life – broadly, the time needed for the level to fall by half in the phase considered – is 35.3 min and the Vd was determined as 0.124 L/kg. For the same compound, in the data set “Rat pharmacokinetics” (po, ig), the AUC was 576 ng·h/mL, the peak concentration (Cmax) (usually the maximum level reached in the sampled fluid or tissue) worked out at 180 ng/mL, the Tmax worked out at 30 min and the half-life was 75.6 min.

For `O=C(O)c1ccc(NC(=O)[C@H](Cc2ccccc2)n2ncc(-c3c(F)ccc(Cl)c3F)cc2=O)cc1` [Example 42, (S)-4-(2-(4-(3-chloro-2,6-difluorophenyl)-6-oxopyridazin-1(6H)-yl)-3-phenylpropanamido)benzoic acid], the IC50 on Human Factor XIa was found to be 1400 nM.

Regarding `CC(=O)c1ccc(Cl)cc1-c1cc(=O)n([C@@H](Cc2ccccc2)C(=O)Nc2ccc(C(=O)O)cc2)nc1O` [Example 34, (S)-4-(2-(4-(2-acetyl-5-chlorophenyl)-3-hydroxy-6-oxopyridazin-1(6H)-yl)-3-phenylpropanamido)benzoic acid], at Human Factor XIa, the IC50 is 140 nM.

As to `CC(=O)c1ccc(Cl)cc1-c1cc(=O)n([C@@H](Cc2ccccc2)C(=O)Nc2ccc(C(=O)O)cc2)nc1OCCO` [Example 6, (S)-4-(2-(4-(2-acetyl-5-chlorophenyl)-3-(2-hydroxyethoxy)-6-oxopyridazine-1(6H)-yl)-3-phenylpropanamido)benzoic acid], in the data set on human plasma, the “aPTT EC1.5×” value is 0.771 µM and the “aPTT EC2×” value was 2.892 µM. In addition, the F in “Rat pharmacokinetics” (ig) is given as 1.7%. For the same compound, in “Rat pharmacokinetics” (iv), the AUC came out at 604 ng·h/mL, the peak level (Cmax) was 1370 ng/mL, the Tmax is 4.98 min and the clearance came to 27.6 mL/min/kg. Moreover, in “Rat pharmacokinetics” (iv), the half-life is 9.72 min and the Vd came out at 0.432 L/kg. Moreover, in “Rat pharmacokinetics” (po, ig), the Cmax stood at 30.5 ng/mL and the Tmax was found to be 60 min.

`CC(=O)c1ccc(Cl)cc1-c1cnn([C@@H](Cc2ccccc2)C(=O)Nc2ccc(C(=O)O)cc2)c(=O)c1` [Example 1, (S)-4-(2-(4-(2-acetyl-5-chlorophenyl)-6-oxopyridazin-1(6H)-yl)-3-phenylpropanamido)benzoic acid]: in the data set with human plasma, the “aPTT EC1.5×” value was determined as 9.31 µM and the “aPTT EC2×” value was over 30 µM.

(Values after patent publication US20230027295A1, “FXIA INHIBITORS AND PREPARATION METHOD THEREFOR AND PHARMACEUTICAL USE THEREOF” (Shenzhen Salubris Pharmaceuticals Co., Ltd., priority 2019, published 2023).)
